As a reminder, the Cmax is the highest concentration seen after dosing. One may read the AUC as concentration integrated over time.

The target in one data set is T1, VDR (Homo sapiens, UniProt P11473).
T1 construct: purchased Biomol
T1 sequence (P11473 1-427): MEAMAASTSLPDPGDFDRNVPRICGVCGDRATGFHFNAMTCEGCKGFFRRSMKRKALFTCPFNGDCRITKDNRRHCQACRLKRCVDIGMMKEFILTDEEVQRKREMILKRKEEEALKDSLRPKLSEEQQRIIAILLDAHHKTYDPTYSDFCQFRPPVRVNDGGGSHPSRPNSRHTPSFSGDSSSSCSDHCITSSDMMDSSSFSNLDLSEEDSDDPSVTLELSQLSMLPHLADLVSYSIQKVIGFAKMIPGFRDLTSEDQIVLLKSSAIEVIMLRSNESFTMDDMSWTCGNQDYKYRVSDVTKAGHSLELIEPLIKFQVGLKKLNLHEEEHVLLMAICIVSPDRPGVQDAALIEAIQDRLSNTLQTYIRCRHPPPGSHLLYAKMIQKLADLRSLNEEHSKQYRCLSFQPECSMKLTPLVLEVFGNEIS
The data set can be described thus: VDR binding assay ([3H]-1,25(OH)2D3 displacement). To be noted: human recombinant VDR; read-out: B50 (VDR binding, displacement of 50 percent [3H]-1,25(OH)2D3). The procedure: • 1. VDR 9.4 μmol/μl (human, recombinant, Biomol). • 2. [^3H]-1,25(OH)2D3 in ethanol • 3. 1,25(OH)2D3 in ethanol • 4. TEK300 • Tris-HCl 50 mM • EDTA 1.5 mM • KCl 300 mM • Adjusted pH to 7.4 (25° C.) • 5. TEDK300 • TEK300 • DTT (dithiothreitol) 10 mM (MW 154.24) • 6. Tris buffer • 22.50 g Tris-HCI • 500 ml H2O • 13.25 g Tris-base • 500 ml H2O • Kept in 4° C. • 7. Dextran-T70 (Mol 70,000) Pharmacia • 8. Charcoal (carbon decolorizing neutral, norit) Fisher Scientific • 9. Gelatin (G-2625 Sigma) (ii) Reagent Preparation: 1. Charcoal Dextran Solution
(1) Tris Buffer • Mixed equal amount of Tris-HCl and Tris-base.
(2) Norit decolorizing neutral charcoal 2.0 g • Tris buffer 150 mL • Stirred
(3) Dextran T-70 0.2 g • Tris buffer 50 ml.
(4) Slowly dripped the suspended dextran into charcoal solution with stirring. • Kept in refrigerator overnight. • Thirty minutes before use, stored on ice with continuous mixing. 2. […]
• Pipetted 100 μL of the upper, aqueous phase to a 24 well scintillation counting plate and added 600 μL scintillation fluid per well, covered and mixed well. Counted the plate using a scintillation counter for 5 min/sample. (iv) Calculations: • The amount of 1,25(OH)2D3 to displace 50 percent [^3H]-1,25(OH)2D3 from VDR was calculated as B50 for 1,25(OH)2D3. The VDR binding of other compounds was calculated as B50 relative to a value of 1 for 1,25(OH)2D3. • Serial Dilution of 1,25(OH)D3

The nature of data set [1]: Pharmacokinetics after i.v. administration in rats. Format: in vivo. To be noted: rat, iv, male Wistar rats, 16 mg/kg B.W. The procedure:
A formulation of compound (20R)-I(e) dissolved in saline (0.9% NaCl): propylene glycol:ethanol (5:3:2; v/v/v) was prepared at a concentration of 20 mg/ml.
Nine male Wistar rats (150-200 g) were fasted 8 hours prior to the initiation of the study. At the initiation of the study, the nine rats received 0.8 ml/kg body weight (B.W.) of the dosing formulation by intravenous (i.v.) injection to deliver 16 mg of compound (20R)-I(e)/kg B.W. Blood was collected from three animals at 0 (day-1), 5, 15, 30, 60, 120, 180 and 240 minutes post dosing. At each time point, 1 ml of blood was collected from the orbital sinus in unpreserved Microtainer tubes. Separated serum samples were kept frozen at −80° C. until analysis. The concentration of compound (20R)-I(e) in the serum samples was quantified using a High Performance Liquid Chromatographic method with Mass Spectroscopy detection (LC MS/MS). An internal standard was added to an aliquot of […] of serum sample and extracted using solid phase extraction (SPE). Samples were passed through C18-SPE cartridges then compound (20R)-I(e) and the internal standard were eluted with 1 ml of methanol. Extracts were evaporated to dryness under nitrogen. The residues were reconstituted in […] of methanol:water (8:2; v/v) and analyzed by LC MS/MS. (iii) Results: Summary of the calculated pharmacokinetic parameters for the i.v. administration of a 16 mg/kg B.W. dose of compound (20R)-I(e) is in the Table below. The Area-Under-Curve (AUC) was calculated from T=0 to 240 min. The maximum concentration (Cmax) was determined from the mean serum concentration versus time profile. The elimination half life (T1/2) was calculated from the elimination phase of the concentration versus time profile assuming first order kinetic elimination.

On to `C=C1/C(=C\C=C2/CCC[C@]3(C)C([C@H](C)C/C=C/C(=NOC)C(C)(C)C)=CC[C@@H]23)C[C@@H](O)C[C@@H]1O` [(20R)-I(e)], for which the IC50 on VDR was 60 nM. For the same compound, the highest level in data set [1] (mean serum concentration) (Cmax) was 38.9 ng/mL. This compound showed an AUC in data set [1] (serum, T=0 to 240 min) of 39.6 ng·h/mL. Besides, in data set [1] (serum, first order elimination assumed, read-out: T1/2 (elimination half life) (converted)), the half-life was 15 min.

The values are drawn from patent publication US8906888B2, “Low-calcemic 16,23-diene 25-oxime analogs of 1α,25-dihydroxy vitamin D3” (Cytochroma Inc., priority 2005, dated 2014).
